Kd and Activity data for eleven compounds are collected here from ChEMBL document CHEMBL4665740, “Discovery of noscapine derivatives as potential β-tubulin inhibitors” (Bioorg Med Chem Lett, 2020).

In one assay the target is Tubulin beta. The assay can be described thus: Binding affinity to CM5 chip immobilized beta tubulin (unknown origin) assessed as thermodynamic constants by SPR assay. It is filed as protein assay, Homo sapiens.
Assay [1] concerns MCF7. Briefly: Cytotoxicity against human MCF7 cells assessed as mortality at 20 uM after 48 hrs by MTT assay. It is filed as functional, cell-based. On the technique in general: Formazan colour is commonly taken as a measure of viable cells.
Assay [2] deals with MCF7. The assay can be described thus: Cytotoxicity against human MCF7 cells assessed as mortality at 20 uM after 48 hrs by MTT assay relative to control. It is filed as functional.

Each structure is given as a SMILES string. Calls of active or inactive are those of the source. No cut-off for these calls is given here.

The term Kd denotes a measure of binding affinity in units of concentration. On to `COc1ccc2c(c1OC)C(=O)O[C@@H]2[C@H]1c2c(c(Br)c3c(c2OC)OCO3)CCN1Cc1cn(-c2ccc(Cl)c(Cl)c2)nn1`, for which the dissociation constant (Kd) at Tubulin beta stood at 374.3 nM. For the same compound, the outcome with MCF7 [1] was Active.

Consider `COc1ccc2c(c1OC)C(=O)O[C@@H]2[C@H]1c2c(cc3c(c2OC)OCO3)CCN1Cc1cn(CC(C)(C)O)nn1`, for which, in the assay on MCF7 [1], the outcome was Active.

As to `COc1ccc2c(c1OC)C(=O)O[C@@H]2[C@H]1c2c(c(Br)c3c(c2OC)OCO3)CCN1Cc1cn(-c2ccc(Br)cc2)nn1`, in the assay with MCF7 [2], the Activity was 60%. For the same compound, on Tubulin beta, the dissociation constant (Kd) is listed as 36.9 nM.

In the case of `COc1ccc2c(c1OC)C(=O)O[C@@H]2[C@H]1c2c(c(Br)c3c(c2OC)OCO3)CCN1Cc1cn(-c2ccc(F)cc2)nn1`, the outcome in the assay with MCF7 [1] was Active.

Regarding `COc1ccc(-n2cc(CN3CCc4c(Br)c5c(c(OC)c4[C@@H]3[C@H]3OC(=O)c4c3ccc(OC)c4OC)OCO5)nn2)cc1OC`, the result in the assay with MCF7 [1] was Active.

As for `COc1ccc2c(c1OC)C(=O)O[C@@H]2[C@H]1c2c(c(Br)c3c(c2OC)OCO3)CCN1Cc1cn(CC(C)(C)O)nn1`, the outcome in the assay with MCF7 [1] was Active.

For `COc1ccc2c(c1OC)C(=O)O[C@@H]2[C@H]1c2c(cc3c(c2OC)OCO3)CCN1Cc1cn(Cc2ccccc2)nn1`, the Activity in the assay on MCF7 [2] stood at 60%. Moreover, the Kd on Tubulin beta is 133 nM.

Consider `COc1ccc2c(c1OC)C(=O)O[C@@H]2[C@H]1c2c(cc3c(c2OC)OCO3)CCN1C` [NOSCAPINE], for which the Activity in the assay with MCF7 [2] is reported as 20%. Further, the Kd on Tubulin beta is on record as 579 nM.

In the case of `CCC(O)Cn1cc(CN2CCc3cc4c(c(OC)c3[C@@H]2[C@H]2OC(=O)c3c2ccc(OC)c3OC)OCO4)nn1` (some centres not stated), the Activity with MCF7 [2] is 60%.

Turning to `CCC(O)Cn1cc(CN2CCc3c(Br)c4c(c(OC)c3[C@@H]2[C@H]2OC(=O)c3c2ccc(OC)c3OC)OCO4)nn1` (some centres not stated), the Kd at Tubulin beta came to 132 nM. Moreover, the result in the assay with MCF7 [1] was Active.

In the case of `COc1ccc2c(c1OC)C(=O)O[C@@H]2[C@H]1c2c(cc3c(c2OC)OCO3)CCN1Cc1cn(-c2ccc(F)cc2)nn1`, on Tubulin beta, the Kd was 21.5 nM. Further, in the assay with MCF7 [1], the outcome was Active.
